This note sets out measurements from PMC9230671, “Fluorochrome Selection for Imaging Intraoperative Ovarian Cancer Probes” (Pharmaceuticals, 2022).

Data set [1] relates to OVCAR-3 xenograft tumors. Briefly: NIR fluorescence imaging / biodistribution in OVCAR-3 s.c. xenograft models. The class given is in vivo, NSG mice. To be noted: for tumor-to-background ratio (TBR): OVCAR-3 s.c. NSG mice, 100 µL of 500 µM i.v., after 24 h; for clearance pattern (organ): ex vivo NIR FLI 6 h after 500 µM i.v., OVCAR-3 mice. As to the method: To assess the capacity of both conjugates to visualize ovarian xenograft tumors “in vivo” and evaluate accumulation and clearance behavior of the conjugates, kinetic imaging was performed at six different time-points. Subcutaneously engrafted OVCAR-3 NSG mice were injected with 100 µL of 500 µM RR11 or 23 (MSA14) intravenously into the tail vein (Figure 3). […] Tumor-specific fluorescence was obtained 4, 6, and 24 h after RR11 injection, with a mean tumor-to-background ratio (TBR) of 1.74 after 24 h. In OVCAR-3 bearing NSG mice (n = 3), injected with 23 (MSA14), high liver signals (ventral view, #) were obtained at all time points with high compound accumulation in the tumors at 24 h (*, Figure 3B). The best TBR of 1.44 was achieved after 24 h. Residual background fluorescence was predominantly observed in the spine and limbs as well as in the excretion organs.
Following the biodistribution over time “in vivo”, we assessed the accumulation of the compounds “ex vivo” at 6 h. In Figure 4A, RR11-induced tumor-specific signal, along with high fluorescence in kidneys, gallbladder, stomach, and lungs, can be observed. […] The higher gastrointestinal fluorescence signal in RR11-imaged mice can derive from auto-fluorescent alfalfa containing diet, which is acquired in the lower wavelength of RR11. The main differences between the accumulation and clearance behavior are marked with an arrow, indicating two different clearance patterns of the compounds through liver (23, MSA14) and kidney (RR11). Finally, the fluorescence of 23 (MSA14) was evaluated in a clinically compatible intraoperative setting using the FLARE® system to assess the suitability of the COX-1 targeted NIR compound for FIGS and its potential clinical translation (Figure 4B). The “in vivo” and “ex vivo” intraoperative images confirm the results from Figure 3B and Figure 4A. […] While the tumor fluorescence intensities were higher than those of kidneys, the fluorescence intensities in the gallbladder and lungs were the highest.
Female NOD-scid IL2rγ^null (NSG) mice, aged 6 to 25 weeks were maintained under defined floral conditions and no more than five mice were housed in individually ventilated (HEPA-filtered air) cages, kept on a 12 h dark/night schedule at a constant temperature of 21 °C and at 50% relative humidity at the University of Bergen’s animal facility. Observations of body weight and general condition including activity levels, appearance, and food intake were monitored twice weekly, and humane endpoints were defined with the use of score sheets. When indicated, animals were euthanized according to institutional guidelines. […]

Data set [2] concerns the target T1, COX-2 (Homo sapiens, UniProt P35354).
T1 construct: purchased Cayman Chemicals (bought through Sigma-Aldrich) 560131
T1 sequence (P35354 18-604): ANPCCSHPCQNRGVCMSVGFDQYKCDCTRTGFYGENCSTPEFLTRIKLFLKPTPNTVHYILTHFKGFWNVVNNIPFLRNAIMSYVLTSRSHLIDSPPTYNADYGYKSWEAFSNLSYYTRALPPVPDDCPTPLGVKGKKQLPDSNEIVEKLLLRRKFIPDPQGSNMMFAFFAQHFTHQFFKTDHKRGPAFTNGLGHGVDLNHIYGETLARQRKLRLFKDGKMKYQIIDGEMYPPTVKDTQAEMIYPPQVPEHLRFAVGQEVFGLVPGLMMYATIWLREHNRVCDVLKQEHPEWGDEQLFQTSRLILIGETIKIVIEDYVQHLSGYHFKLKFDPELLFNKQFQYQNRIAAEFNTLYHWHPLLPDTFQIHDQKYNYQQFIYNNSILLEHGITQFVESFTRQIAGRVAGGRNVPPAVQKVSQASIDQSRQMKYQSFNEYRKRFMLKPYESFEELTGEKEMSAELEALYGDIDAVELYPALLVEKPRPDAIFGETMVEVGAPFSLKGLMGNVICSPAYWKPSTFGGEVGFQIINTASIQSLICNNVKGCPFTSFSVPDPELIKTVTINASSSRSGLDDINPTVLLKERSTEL
Description: COX-2 inhibition, COX (ovine/human) inhibitor screening assay kit. The class given is biochemical. The conditions noted are these: for COX-2 inhibitory activity (in words): up to 50 µM final concentration. As to the method: Cell culture reagents were purchased from Euroclone (Milan, Italy). COX (ovine/human) inhibitor screening assay kit (Catalog No. 560131, Cayman Chemicals, Ann Arbor, MI, USA) was purchased from Sigma-Aldrich, Burlington, MA, USA. […] The other reagents were purchased from Sigma-Aldrich, Burlington, MA, USA.
The COX-1/2 inhibition screening experiments were carried out according to the manufacturer’s instructions. The plate was incubated for 60 min at r.t. under shaking and read with the Tecan Infinite 200 Microplate Reader at λ = 405 nm.
The graph between percent inhibition of the enzyme and corresponding concentration of the compound provided IC50 values for the probe compounds.

As for `CCN1/C(=C/C=C/C=C/C=C/C2=[N+](CCCCCC(=O)NCCCCNC(=O)Cc3onc(-c4ccc(OC)cc4)c3-c3ccc(OC)cc3)c3ccc4ccccc4c3C2(C)C)C(C)(C)c2c1ccc1ccccc21` [23 (MSA14), 3-(6-(4-(2-(3,4-Bis(4-methoxyphenyl)isoxazole-5-yl)acetamido)butyl)amino-6-oxohexyl)-2-[7-(1,3-dihydro-1,1-dimethyl-3-ethyl-2H-benz[e]indolin-2-yl-idene)-1,3,5-heptatrienyl]-1,1-dimethyl-3-(6-carboxilato-hexyl)-1H-benz[e]indolium chloride], in data set [1], the “tumor-to-background ratio (TBR)” value is given as 1.44 and the “clearance pattern (organ)” value is given as “liver”. Further, in data set [2], the IC50 (commonly the point on the concentration scale where inhibition reaches its midpoint) was greater than 50 µM and the “COX-2 inhibitory activity (in words)” value was “did not inhibit”. In addition, in data set [2] (listed as 23), the “COX-2 inhibitory activity (in words)” value was “almost inactive”.
`COc1ccc(-c2noc(CC(=O)NCCCCNc3cc4[o+]c5cc(N(C)C)ccc5nc4c4ccccc34)c2-c2ccc(OC)cc2)cc1.[Cl-]` [RR11, N-[4-(9-dimethylimino-9H-benzo[a]phenoxazin-5-ylamino)butyl]-2-(3,4-bis(4-methoxyphenyl)isoxazol-5-yl)acetamide chloride, reference compound]: in data set [1], the “tumor-to-background ratio (TBR)” value was 1.74 and the “clearance pattern (organ)” value is recorded as “kidney”. The 50% inhibitory concentration (IC50) in data set [2] amounted to 2.4 µM. Besides, the COX-2 % inhib. in data set [2] (at 50 µM compound final concentration) is given as 64%.
